In patent US20240285740A1, “COMPOSITIONS AND METHODS FOR TREATING CANCER” (Dana-Farber Cancer Institute, Inc., priority 2021, published 2024):
“Also recorded” adds a separate entry of the source.

Legend:
[1] = molecular target: human Galectin-3 (GAL3) (human) (UniProt P17931); assay: cell-based or functional assay
[2] = test system: T cells (CD3+, CD4+ Th, CD8+ Tc) in BMMC from MM patients; assay: CFSE proliferation of T cells in MM patient BMMC treated with checkpoint inhibitor, immune agonist or LAG3-ligand antibody; format: cell-based, human; conditions: for CD3+ T cell proliferation: BMMC, newly diagnosed, relapsed or relapsed/refractory MM (N=10), vs untreated control
Excerpt: BM aspirates and peripheral blood (PB) samples were obtained from patients with MGUS [BM: N=5, PB: N=5] and SMM [BM: N=5, PB: N=5] and patients with MM (Newly Diagnosed [BM: N=15, PB: N=10], Relapsed [BM: N=12, PB: N=12], Relapsed/Refractory [BM: N=15, PB: N=12]) after informed consent, in accordance with the Declaration of Helsinki, and with approval by the Institutional Review Board at Dana-Farber Cancer Institute (Boston, MA). In addition, healthy individuals BM [N=5] or leukapheresis [N=5] products were purchased from either AllCells (Alameda, CA) or the Blood Donor Center at Boston Children's Hospital (Boston, MA), respectively. Mononuclear cells were isolated from BM (BMMC) or PB (PBMC) by standard density gradient centrifugation using Ficoll-Paque™ Plus (Amersham Pharmacia Biotech AB, Uppsala Sweden) and used in these studies.
(§1) Proliferation of specific cell populations was evaluated using CFSE-based proliferation assays. In brief, MM patient BMMC, PBMC or XBP1/CD138/CS1-specific CTL were labeled with CFSE (Molecular Probes, Eugene, OR) and incubated with clinical grade checkpoint inhibitor (1 μg/ml) or immune agonist (1 μg/ml) in the presence of low dose (20 units) IL-2, with or without stimulation with irradiated MM cells (patients' cells, cell line) or MM lysates. After 4-7 days incubation, the cells were stained with LIVE/DEAD reagent and specific fluorochrome conjugated mAbs, washed, fixed in 2% paraformaldehyde, and acquired using a LSRII Fortessa™ flow cytometer.

[3] = test system: CD3+ T cells in PBMC from MM patients; assay: CFSE T cell proliferation in MM patient PBMC with or without MM lysate stimulation; format: cell-based, human; conditions: newly diagnosed (N=6) or relapsed (N=3) MM, presence or absence of MM lysate, vs anti-PD1, anti-OX40, anti-GITR, FIG. 1C
Method: (§2) Multiple myeloma (MM) cell lines U266, McCAR, HSB2, MMIS, RPMI8226, OPM2, H929, ANBL6, OCIMY5, AMO1 and KMS11 were obtained from ATCC (Manassas, VA). The T2 cell line, a human B and T cell hybrid expressing HLA-A2 molecules, was provided by Dr. J. Molldrem (University of Texas M. D. Anderson Cancer Center, Houston, TX). The cell lines were cultured in DMEM media supplemented with 10% fetal calf serum (FCS; BioWhittaker, Walkersville, MD), 100 IU/ml penicillin, and 100 μg/ml streptomycin (Gibco-Life Technologies, Rockville, MD). A mixture of ten MM cell lines was utilized to prepare tumor cell lysates by repeated (10×) cycles of freeze (−140° C.)/thaw (37° C.) or prepared as irradiated (20 Gy) whole tumor cells as sources of MM antigen stimulation.
BM aspirates and peripheral blood (PB) samples were obtained from patients with MGUS [BM: N=5, PB: N=5] and SMM [BM: N=5, PB: N=5] and patients with MM (Newly Diagnosed [BM: N=15, PB: N=10], Relapsed [BM: N=12, PB: N=12], Relapsed/Refractory [BM: N=15, PB: N=12]) after informed consent, in accordance with the Declaration of Helsinki, and with approval by the Institutional Review Board at Dana-Farber Cancer Institute (Boston, MA). […]
Proliferation of specific cell populations was evaluated using CFSE-based proliferation assays. […]

[4] = test system: T cells in BMMC from MM patients; assay: CFSE T cell proliferation in MM patient BMMC stimulated with irradiated tumor cells or tumor lysates; format: cell-based, human; conditions: BMMC (N=5), FIG. 9; for enhancement of tumor-lysate-induced T cell response: checkpoint inhibitors (anti-LAG3>anti-PD1) more than immune agonists
Method: as §2, §1

[5] = test system: PD1+ or LAG3+ T cells in BMMC from MM patients; assay: Checkpoint (PD1, LAG3) expression on T cells in MM patient BMMC after modulator treatment, flow cytometry; format: cell-based, human; conditions: for upregulation / induction of other immune checkpoints: MM patient BMMC, among clinical grade checkpoint inhibitors and immune agonists evaluated (discussion)
Method: (§3) BMMC or PBMC from patients with MGUS, SMM, MM or healthy individuals were evaluated by flow cytometry analyses by staining cells with fluorochrome-conjugated mAb specific to each cell surface antigen for 30 minutes at room temperature, followed by LIVE/DEAD reagent staining to confirm viability. Regulatory T cells (Treg) were identified by cell surface staining (CD3, CD4, CD8, CD25), permeabilized using Foxp3/Transcription Factor Staining Buffer Set (eBioscience) and stained for intracellular FOXP3 expression. Myeloid-derived-suppressor cells (MDSC) were identified as G-type MDSC (CD11b+CD33+ HLA-DRlow/−CD14−CD15+) and M-type MDSC (CD11b+CD33+ HLA-DRlow/−CD14+CD15−). Cells were acquired using a BD Fortessa X-20 (BD Biosciences) flow cytometer, and the data was analyzed using DIVA™ v8.0 (BD) or FlowJo v10.0.7 (Tree star, Ashland, OR) software.
as §1

[6] = test system: CD4+ Treg in BMMC from MM patients; assay: Treg proliferation in MM patient BMMC after modulator treatment; format: cell-based, human; conditions: for Treg proliferation: BMMC of MM patients (N=5), single agents compared, FIG. 5B
Method: as §3, §1

[7] = test system: XBP1/CD138/CS1-specific CD8+ CTL stimulated with U266 MM cells; assay: CFSE proliferation of XBP1/CD138/CS1-specific CTL in response to HLA-A2+ U266 MM cells; format: cell-based, human; conditions: CTL (N=5) treated with antibody, α-LAG3>α-PD-1, FIG. 6B
Method: (§4) XBP1/CD138/CS1-specific CTL were generated ex vivo after four cycles of weekly stimulation of HLA-A2^+ CD3^+ T lymphocytes (N=5) with a cocktail of four peptides containing heteroclitic XBP1 US184-192 (YISPWILAV (SEQ ID NO: 24)), heteroclitic XBP1 SP367-375 (YLFPQLISV (SEQ ID NO: 25)), native CD138260-268 (GLVGLIFAV (SEQ ID NO: 26)) and native CS1239-247 (SLFVLGLFL (SEQ ID NO: 27)), as described previously.
as §1

[8] = test system: U266 MM cells; assay: CD107a degranulation and intracellular IFN-γ production of XBP1/CD138/CS1-specific CTL against MM; format: cell-based, human; conditions: CTL treated 1 μg/ml antibody 24 hours, then cultured with U266; FIG. 6C
Method: as §4
The anti-tumor activities of MM-specific CTL were measured by CD107a degranulation and IFN-γ production against MM. In brief, XBP1/CD138/CS1-specific CTL were treated with clinical grade anti-PD1 or anti-LAG3 (1 μg/ml) for 24 hours. The cells were then cultured with U266 MM cells in the presence of CD107a mAb. After 1-hour incubation, Brefeldin A (BD) and Monensin (BD) were added, and cultures were incubated for an additional 5 hours. Cells were harvested, washed in PBS, stained with LIVE/DEAD reagent, washed, incubated with fluorochrome conjugated mAb to identify T cells, allowing for assays of their functional activity against MM. After surface staining, cells were fixed/permeabilized, stained for Th1 cytokines, washed with Perm/Wash solution (BD), and analyzed by flow cytometry. MP-CTL specific CD107a degranulation and Th1 cytokine production were analyzed using DIVA™ v8.0 or FlowJo v10.0.7 software.

[9] = BMMC of MM patients (N=10), antibody 1 μg/ml, low dose IL-2, FIG. 1B
[10] = antibody 1 μg/ml, low dose IL-2, FIG. 1B
[11] = BMMC of MM patients (N=10), FIG. 5A

Chain of UniProt P17931 (P17931 2-250 limits assumed): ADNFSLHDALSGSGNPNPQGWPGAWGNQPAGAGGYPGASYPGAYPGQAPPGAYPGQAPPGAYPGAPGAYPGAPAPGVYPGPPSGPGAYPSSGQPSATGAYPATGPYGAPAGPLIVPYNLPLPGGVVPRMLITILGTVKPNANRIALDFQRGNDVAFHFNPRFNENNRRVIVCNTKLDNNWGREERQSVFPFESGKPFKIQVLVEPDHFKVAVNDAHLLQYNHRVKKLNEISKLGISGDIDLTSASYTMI

Anti-GAL3 antibody (BD, Clone B2C10; Cat Nos.: 565676-565678, and 565682)
proliferation of CD4+Th cells in newly diagnosed MM patient BMMC, Patient #1 [1]: 13%
proliferation of CD4+Th cells in newly diagnosed MM patient BMMC, Patient #2 [1]: 9%
proliferation of CD8+Tc cells in newly diagnosed MM patient BMMC, Patient #1 [1]: 45%
proliferation of CD8+Tc cells in newly diagnosed MM patient BMMC, Patient #2 [1]: 38%

anti-LAG3: Clinical grade checkpoint inhibitor, anti-LAG3 antibody Relatlimab, provided by Bristol-Myers Squibb
proliferation of CD4+ Th cells [2, 9]: significant increase; also recorded: highest proliferation
proliferation of CD8+ Tc cells [2, 9]: increased; also recorded: highest proliferation
CD3+ T cell proliferation [2, 10]: triggered
effector T cell proliferation ([2]; among clinical grade checkpoint inhibitors and immune agonists evaluated (discussion)): most robust
T cell responses in BMMC/PBMC from MM patients compared with healthy donors ([2]; discussion): significantly increased
T cell proliferation [3]: significantly (*p<0.05) higher
enhancement of tumor-lysate-induced T cell response [4]: enhanced to a greater extent
T cell proliferation ([4]; mixture of ten MM cell lines as irradiated whole cells or tumor lysates, vs other immune modulators): significantly higher
upregulation of PD1 and LAG3 expression on T cells [5, 11]: induce upregulation
upregulation / induction of other immune checkpoints [5]: lowest level
impact of treatment on G-type MDSC and Tregs ([6]; BM milieu of MM patients (discussion)): low
Treg proliferation [6]: lowest induction; also recorded: lowest level
proliferation of total CD8+ T cells and Central Memory, Effector Memory, CD28+ and CD38+ CTL subsets [7]: significantly increase; also recorded: enhanced proliferation
CD107a degranulation [8]: highest anti-tumor activities
IFN-γ production [8]: highest anti-tumor activities

anti-PD1: Clinical grade checkpoint inhibitor, anti-PD1 antibody Nivolumab, provided by Bristol-Myers Squibb
proliferation of CD4+ Th cells [2, 9]: significant increase
CD3+ T cell proliferation [2, 10]: triggered
enhancement of tumor-lysate-induced T cell response [4]: enhanced to a greater extent
proliferation of T cells expressing an alternative immune checkpoint [5, 11]: to a greater extent than anti-LAG3 treatment
upregulation of PD1 and LAG3 expression on T cells [5, 11]: induce upregulation
upregulation / induction of other immune checkpoints [5]: highest level
upregulation / induction of other immune checkpoints ([5]; listed as anti-PD-1 antibody): upregulate
Treg proliferation [6]: high induction; also recorded: highest level
expansion of Treg cells, single agent ([6]; BMMC, relapsed/refractory MM (N=3), FIG. 5C): significant (*p<0.05) expansion
proliferation of total CD8+ T cells and Central Memory, Effector Memory, CD28+ and CD38+ CTL subsets [7]: significantly increase
